Measured values from US7709481B2, “Phenyl-1,2,4-oxadiazolone derivatives, processes for their preparation and methods for their use as pharmaceuticals” (Sanofi-Aventis, priority 2005, dated 2010).

Key:
human PPARdelta = target: T1, human PPARdelta (Homo sapiens, UniProt Q03181); experiment: Cellular PPARdelta assay (HEK PPARdelta reporter cell line, luciferase); assay type: cell-based; conditions: 24 h incubation
T1 construct: human PPARdelta receptor (amino acids S139-Y441); expressed in transfected cells; plasmid pcDNA3
T1 sequence (Q03181 139-441): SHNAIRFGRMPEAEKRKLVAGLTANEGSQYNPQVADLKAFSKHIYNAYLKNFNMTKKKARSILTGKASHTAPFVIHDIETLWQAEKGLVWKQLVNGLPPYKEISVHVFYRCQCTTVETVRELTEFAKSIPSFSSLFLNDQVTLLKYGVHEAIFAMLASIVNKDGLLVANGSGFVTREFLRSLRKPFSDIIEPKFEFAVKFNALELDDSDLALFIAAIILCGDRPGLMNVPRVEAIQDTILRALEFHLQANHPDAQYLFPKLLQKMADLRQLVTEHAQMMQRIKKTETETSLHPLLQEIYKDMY
Method: The raw data from the luminometer are transferred into a Microsoft Excel file. Dose-effect plots and EC50 values of PPAR agonists are calculated using the XL.Fit program as specified by the manufacturer (IDBS). […] Compounds of the invention of the formula I activate the PPARalpha receptor. Determination of EC50 values of PPAR agonists in the cellular PPARdelta assay The potency of substances which bind to human PPARdelta and activate it in an agonistic manner is analyzed using a stably transfected HEK cell line (HEK=human embryo kidney) which is referred to here as PPARdelta reporter cell line. In analogy to the assay described for PPARalpha, the PPARdelta reporter cell line also contains two genetic elements, a luciferase reporter element (pdeltaM-GAL4-Luc-Zeo) and a PPARdelta fusion protein (GR-GAL4-humanPPARdelta-LBD) which mediates expression of the luciferase reporter element depending on a PPARdelta ligand. The stably and constitutively expressed fusion protein GR-GAL4-humanPPARdelta-LBD binds in the cell nucleus of the PPARdelta reporter cell line via the GAL4 protein portion to the GAL4 DNA binding motifs 5′-upstream of the luciferase reporter element which is stably integrated in the genome of the cell line. There is only little expression of the luciferase reporter gene in the absence of a PPARdelta ligand if fatty acid-depleted fetal calf serum (cs-FCS) is used in the assay. PPARdelta ligands bind and activate the PPARdelta fusion protein and thereby stimulate expression of the luciferase reporter gene. The luciferase which is formed can be detected by means of chemiluminescence via an appropriate substrate.
The production of the stable PPARdelta reporter cell line is based on a stable HEK-cell clone which was stably transfected with a luciferase reporter element. This step was already described above in the section “construction of the PPARalpha reporter cell line”. In a second step, the PPARdelta fusion protein (GR-GAL4-humanPPARdelta-LBD was stably introduced into this cell clone. For this purpose, the cDNA coding for the N-terminal 76 amino acids of the glucocorticoid receptor (Accession # P04150) was linked to the cDNA section coding for amino acids 1-147 of the yeast transcription factor GAL4 (Accession # P04386). The cDNA of the ligand-binding domain of the human PPARdelta receptor (amino acids S139-Y441; Accession # L07592) was cloned in at the 3′-end of this GR-GAL4 construct. The fusion construct prepared in this way (GR-GAL4-humanPPARdelta-LBD) was recloned into the plasmid pcDNA3 (Invitrogen) in order to enable constitutive expression by the cytomegalovirus promoter. This plasmid was linearized with a restriction endonuclease and stably transfected into the previously described cell clone containing the luciferase reporter element. The resulting PPARdelta reporter cell line which contains a luciferase reporter element and constitutively expresses the PPARdelta fusion protein (GR-GAL4-human PPARdelta-LBD) was isolated by selection with zeocin (0.5 mg/ml) and G418 (0.5 mg/ml).
The activity of PPARdelta agonists is determined in a 3-day assay in exact analogy to the procedure already described for the PPARalpha reporter cell line except that the PPARdelta reporter cell line and a specific PPARdelta agonist was used as a standard to control test efficacy. PPARdelta EC50 values in the range from 0.3 nM to >10 μM were measured for the PPAR agonists of Examples 1 to 69 described in this application. Compounds of the invention of the formula I activate the PPARdelta receptor.

human PPARalpha = target: T2, human PPARalpha (Homo sapiens, UniProt Q07869); experiment: Cellular PPARalpha assay (HEK PPARalpha reporter cell line, luciferase); assay type: cell-based; conditions: 24 h incubation
T2 construct: human PPARalpha receptor (amino acids S167-Y468); expressed in transfected cells; plasmid pcDNA3
T2 sequence (Q07869 167-468): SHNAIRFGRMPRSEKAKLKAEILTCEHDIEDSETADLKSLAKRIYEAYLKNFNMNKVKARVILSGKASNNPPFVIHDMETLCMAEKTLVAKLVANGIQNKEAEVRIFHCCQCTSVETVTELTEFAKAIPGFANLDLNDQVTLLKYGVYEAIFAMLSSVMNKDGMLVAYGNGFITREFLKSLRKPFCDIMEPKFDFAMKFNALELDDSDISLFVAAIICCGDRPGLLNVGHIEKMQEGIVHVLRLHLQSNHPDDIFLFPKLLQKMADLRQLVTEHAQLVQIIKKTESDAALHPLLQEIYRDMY
Method: The activity of the compounds was tested as follows. The potency of substances which bind to human PPARalpha and activate it in an agonistic manner is analyzed using a stably transfected HEK cell line (HEK=human embryo kidney) which is referred to here as PPARalpha reporter cell line. It contains two genetic elements, a luciferase reporter element (pdeltaM-GAL4-Luc-Zeo) and a PPARalpha fusion protein (GR-GAL4-humanPPARalpha-LBD) which mediates expression of the luciferase reporter element depending on a PPARalpha ligand. The stably and constitutively expressed fusion protein GR-GAL4-humanPPARalpha-LBD binds in the cell nucleus of the PPARalpha reporter cell line via the GAL4 protein portion to the GAL4 DNA binding motifs 5′-upstream of the luciferase reporter element which is stably integrated in the genome of the cell line. There is only weak expression of the luciferase reporter gene in the absence of a PPARalpha ligand if fatty acid-depleted fetal calf serum (cs-FCS) is used in the assay. PPARalpha ligands bind and activate the PPARalpha fusion protein and thereby stimulate the expression of the luciferase reporter gene. The luciferase which is formed can be detected by means of chemiluminescence via an appropriate substrate.
The PPARalpha reporter cell line was prepared in two stages. Firstly, the luciferase reporter element was constructed and stably transfected into HEK cells. For this purpose, five binding sites of the yeast transcription factor GAL4 (Accession # AF264724) were cloned in 5′-upstream of a 68 bp-long minimal MMTV promoter (Accession # V01175). The minimal MMTV promoter section contains a CCAAT box and a TATA element in order to enable efficient transcription by RNA polymerase II. The cloning and sequencing of the GAL4-MMTV construct took place in analogy to the description of Sambrook J. et. al. (Molecular cloning, Cold Spring Harbor Laboratory Press, 1989). Then the complete Photinus pyralis gene (Accession # M15077) was cloned in 3′-downstream of the GAL4-MMTV element. After sequencing, the luciferase reporter element consisting of five GAL4 binding sites, MMTV promoter and luciferase gene was recloned into a plasmid which confers zeocin resistance in order to obtain the plasmid pdeltaM-GAL4-Luc-Zeo. This vector was transfected into HEK cells in accordance with the statements in Ausubel, F. M. et al. (Current protocols in molecular biology, Vol. 1-3, John Wiley & Sons, Inc., 1995).
In a second step, the PPARalpha fusion protein (GR-GAL4-humanPPARalpha-LBD was introduced into the stable cell clone described. For this purpose, initially the cDNA coding for the N-terminal 76 amino acids of the glucocorticoid receptor (Accession # P04150) was linked to the cDNA section coding for amino acids 1-147 of the yeast transcription factor GAL4 (Accession # P04386). The cDNA of the ligand-binding domain of the human PPARalpha receptor (amino acids S167-Y468; Accession # S74349) was cloned in at the 3′-end of this GR-GAL4 construct. The fusion construct prepared in this way (GR-GAL4-humanPPARalpha-LBD) was recloned into the plasmid pcDNA3 (Invitrogen) in order to enable constitutive expression therein by the cytomegalovirus promoter. This plasmid was linearized with a restriction endonuclease and stably transfected into the previously described cell clone containing the luciferase reporter element. The finished PPARalpha reporter cell line which contains a luciferase reporter element and constitutively expresses the PPARalpha fusion protein (GR-GAL4-human PPARalpha-LBD) was isolated by selection with zeocin (0.5 mg/ml) and G418 (0.5 mg/ml).
The activity of PPARalpha agonists is determined in a 3-day assay which is described below: […]

Compound	EC50 (human PPARdelta) [nM]	EC50 (human PPARalpha) [nM]
Cc1nc(C2CCCCC2)sc1COc1ccc(-c2noc(=O)[nH]2)c(Cl)c1 [Example 5, 3-[2-Chloro-4-(2-cyclohexyl-4-methyl-thiazol-5-ylmethoxy)-phenyl]-4H-[1,2,4]oxadiazol-5-one]	230	1260
COCc1nc(CCC2CCCCC2)sc1COc1ccc(-c2noc(=O)[nH]2)c(Cl)c1 [Example 10, 3-{2-Chloro-4-[2-(2-cyclohexyl-ethyl)-4-methoxymethyl-thiazol-5-ylmethoxy]-phenyl}-4H-[1,2,4]oxadiazol-5-one]	70	530
COCc1nc(C2CCCCCC2)sc1COc1ccc(-c2noc(=O)[nH]2)c(Cl)c1 [Example 11, 3-[2-Chloro-4-(2-cycloheptyl-4-methoxymethyl-thiazol-5-ylmethoxy)-phenyl]-4H-[1,2,4]oxadiazol-5-one]	130	1250
COCc1nc([C@H]2CC[C@H](c3ccc(Cl)cc3)CC2)sc1COc1ccc(-c2noc(=O)[nH]2)c(Cl)c1 [Example 12, Trans-3-(2-Chloro-4-{2-[4-(4-chloro-phenyl)-cyclohexyl]-4-methoxymethyl-thiazol-5-ylmethoxy}-phenyl)-4H-[1,2,4]oxadiazol-5-one]	10	800
COCc1nc([C@H]2CC[C@H](C(F)(F)F)CC2)oc1COc1ccc(-c2noc(=O)[nH]2)c(Cl)c1 [Example 18a, Trans-3-{2-Chloro-4-[4-methoxymethyl-2-(4-trifluoromethyl-cyclohexyl)-oxazol-5-ylmethoxy]-phenyl}-4H-[1,2,4]oxadiazol-5-one]	40	2500
O=c1[nH]c(-c2ccc(OCc3sc(-c4ccc(C(F)(F)F)nc4)nc3CCCOCc3ccccc3)cc2Cl)no1 [Example 25, 3-{4-[4-(3-Benzyloxy-propyl)-2-(6-trifluoromethyl-pyridin-3-yl)-thiazol-5-ylmethoxy]-2-chloro-phenyl}-4H-[1,2,4]oxadiazol-5-one]	0.3	75

Results, then the compound that gave them:

EC50 (human PPARdelta) [nM]	EC50 (human PPARalpha) [nM]	Compound
14	> 33000	Cc1nc(-c2ccc(C(F)(F)F)nc2)sc1C(OCc1ccc(-c2noc(=O)[nH]2)c(F)c1)C(F)(F)F (stereo not drawn) [Example 31, 3-(2-Fluoro-4-{2,2,2-trifluoro-1-[4-methyl-2-(6-trifluoromethyl-pyridin-3-yl)-thiazol-5-yl]-ethoxymethyl}-phenyl)-4H-[1,2,4]oxadiazol-5-one]
59	> 33000	Cc1nc(-c2ccc(C(F)(F)F)nc2)sc1C(OCc1ccc(-c2noc(=O)[nH]2)c(Cl)n1)C(F)(F)F (stereo not drawn) [Example 37, 3-(2-Chloro-6-{2,2,2-trifluoro-1-[4-methyl-2-(6-trifluoromethyl-pyridin-3-yl)-thiazol-5-yl]-ethoxymethyl}-pyridin-3-yl)-4H-[1,2,4]oxadiazol-5-one]
86	5440	Cc1nc([C@H]2CC[C@H](C(F)(F)F)CC2)sc1C(OCc1ccc(-c2noc(=O)[nH]2)c(C2CC2)c1)C(F)(F)F (stereo partly drawn) [Example 39, 3-(2-Cyclopropyl-4-{2,2,2-trifluoro-1-[4-methyl-2-(trans,1,4-trifluoromethyl-cyclohexyl)-thiazol-5-yl]-ethoxymethyl}-phenyl)-4H-[1,2,4]oxadiazol-5-one]
7390	4330	Cc1nc(-c2cccc3cccnc23)sc1COc1ccc(-c2nc(=O)o[nH]2)c(Cl)c1 [Example 46, 3-[2-Chloro-4-(4-methyl-2-quinolin-8-yl-thiazol-5-ylmethoxy)-phenyl]-2H-[1,2,4]oxadiazol-5-one]
7	335	CCC(Oc1cc(OC)c(-c2noc(=O)[nH]2)cc1F)c1sc([C@H]2CC[C@H](C(F)(F)F)CC2)nc1C (stereo partly drawn) [Example 51, 3-(5-Fluoro-2-methoxy-4-{1-[4-methyl-2-(trans-1,4-trifluoromethyl-cyclohexyl)-thiazol-5-yl]-propoxy}-phenyl)-4H-1,2,4-oxadiazol-5-one]
7	> 33000	CCC(Oc1ccc(-c2noc(=O)[nH]2)c(OC(F)F)c1)c1sc([C@H]2CC[C@H](C(F)(F)F)CC2)nc1CN1CCC(C(F)(F)F)CC1 (stereo partly drawn) [Example 61, 3-(2-Difluoromethoxy-4-{1-[2-(trans-1,4-trifluoromethyl-cyclohexyl)-4-(4-trifluoromethyl-piperidin-1-ylmethyl)-thiazol-5-yl]-propoxy}-phenyl)-4H-1,2,4-oxadiazol-5-one]
